Experimental data reported in US6677311B1, “Inducible HSV-TK in transformed cell populations” (priority 1988, dated 2004).

Assays:
COS cells = assay: Inhibition of plasmid replication in cotransfected COS cells expressing HSV1-TK; format: cell-based, monkey; details: 10 μM drug; for reduction of total plasmid copy number (pSV2CAT) relative to no drug treatment: COS cells cotransfected with pSV2CAT, pApS1 (MTV-HSV1-TK), pRShGR, Dex 10^-7 M, 36 h; for decrease of replication of PRShGR': same cotransfection, similar to pSV2CAT
Procedure: The possibility was tested that HSVI-TK expressed from a transfected plasmid could metabolize anti-herpetic nucleosides to substrates capable of being metabolized by a cellular DNA polymerase. In principle, the incorporation of these activated drugs should lead to a net decrease in cellular DNA replication. Accordingly, a plasmid capable of replicating in COS cells [monkey kidney cells which express T antigen (Tag); See Gluzman, Y. in Cell, 23:175-182 (1981)], namely pSV2CAT (See FIG. 1a; a plasmid that contains the Simian virus 40 promoter region linked to the chloramphenicol acetyltransferase (CAT) gene; See Gorman, et al. in Mol. Cell. Biol., 2:1044-1051(1982)) was cotransfected with a plasmid, pApSI (a plasmid that contains the mouse mammary tumor virus long terminal repeat (MTV-LTR) linked to the HSV1-TK gene; See Chandler, et al., in Cell, 33:489-499 (1983)), expressing HSV1-TK gene under the control of the glucocorticoid inducible promoter of the mouse mammary tumor virus (MTV) (see FIG. 1a). Here, the expression of TK is dependent on both the presence of glucocorticoids, such as the synthetic dexamethasone (Dex), and the glucocorticoid receptor which activate the MTV-promoter in the presence of Dex. For this reason, a human glucocorticoid receptor (hGR) expression vector, PRShGR' (a human glucocorticoid receptor (hGR) expression vector that contains the Rous sarcoma virus long terminal repeat (RSV-LTR) linked to the human glucocorticoid receptor; See Giguere, et al., in Cell, 46:645-652 (1986)), was also cotransfected to insure high levels of this transacting factor. PRShGR' itself contains the origin of replication of SV40 and therefore is able to replicate in COS cells.
Semi-confluent COS cells were cotransfected by the calcium phosphate technique (See Graham, F. L. and van der Eb, A. J., Virology, 52:456-467 (1973) with 1 μg of pSV2CAT, 5 μg of pApS1 and 1 μg of pRShGR' and analyzed 36 hours later. The effect of ACV or FIAU on the replication of pSV2CAT was monitored by the reduction in the number of molecules of this plasmid as compared to a similar experiment conducted in the absence of these drugs. The cells were grown in Dulbecco media containing 5% FCS. Before each experiment, Dex, at a concentration of 10^−7 M, was added. Where the nucleoside analogs were tested, either ACV or FIAU was added to the media at a concentration of 10 μM. When the cells were trypsinized and washed after 24 hours, and then replaced, the new media contained the same concentration of Dex and ACV or FIAU as before. 12 hours later the cells were harvested and plasmid DNA was recovered. The plasmids were recovered from the transfected cells by the method of Hirt (see J. Mol. Biol., 26:365-269 (1967)). […]

[1] = test system: rat fibroblast cell line #3B; assay: Cell growth assay, HSV1-TK expressing 3B cells; format: cell-based
Excerpt: To examine the effect on cellular DNA replication, the rat fibroblast cell line #3B (see Pfahl, et al. Proc. UCLA Symp. Conf. Steroid Hormone Action, ed. Ringold, G. (Liss, N.Y.), Vol. 75:161-168 (1987) that stably expresses the glucocorticoid inducible MTV-HSV1-TK gene, was used. Addition of Dex to these cells leads to a 50-fold increase in HSV1-TK activity. The effect of the drugs on the 3B cells was compared to the one obtained on the control rat 208 fibroblast cell line (see Quade, K. (1979) in Virology, 98:461-465 (1979), a cell line not expressing HSV1-TK). The experiments were performed by seeding cells at low density (3×10^4) in Dulbecco media containing 10% FCS. Cells were incubated with varying concentrations of drug placed in the media 12 hours after the cells were plated either in the presence or in the absence of 10^−7 M Dexamethasone. After a total period of 72 hours, viable cells were recognized by Trypan blue exclusion. Cell numbers were determined with a Neubauer Hemocytometer. The efficacy of the drugs was monitored as reduction in the total number of viable cells.

spleen and thymus = assay: FIAU cell killing in KHTK transgenic mice (miniosmotic pump); format: in vivo, mouse
Procedure: Furthermore, to test if the protein was biologically active, a TK assay [See Fyfe et al., J. Biol. Chem. 253:8721-8727 (1978)] was performed on extracts from these tissues. […] To evaluate the efficacy of the system in vivo, an experiment was performed in which transgenic and non-transgenic littermates were implanted subcutaneously with a miniosmotic pump (model 2002, Alzet, Alza Corp., Palo Alto, Calif.). Transgenic and nontransgenic littermates were then treated for one week with a 50 mg/ml solution of FIAU in PBS released by the Miniosmotic pump. FIAU was chosen because it was most efficient in blocking the DNA replication in vitro. The dose was calculated to obtain serum levels of the drug shown to be effective in cell culture. The animals were sacrificed one week after the pump was implanted. […] In the transgenic mouse, most organs were also normal with the dramatic exception of the spleen and thymus which were visually atrophied.

[2] = transgenic mouse, 50 mg/ml FIAU in PBS by miniosmotic pump, one week

Row | Compound | reduction of total plasmid copy number (pSV2CAT) relative to no drug treatment (COS cells) | decrease of replication of PRShGR' (COS cells) | cell death ([1]; 3.0 μM ACV, 3B cells in the presence of Dex, 72 h) | cell death ([1]; 10 μM ACV, 3B cells in the presence of Dex) | toxicity independent of the presence or absence of Dex ([1]; 100 μM ACV) | cell death ([1]; 100 μM ACV, 3B cells in the presence of Dex) | effect on number of viable cells ([1]; 0.1 to 1.0 μM, 72 h) | reduction of viability ([1]; 0.1 μM FIAU) | cell death ([1]; 3.0 μM FIAU, in the absence of severe non-specific toxicity) | autopsy findings in control mouse (spleen and thymus; nontransgenic littermate, one week of FIAU treatment) | reduction of the cell number in the spleen (spleen and thymus; [2]) | reduction of the cell number in the thymus (spleen and thymus; [2])
1 | Nc1nc2c(ncn2COCCO)c(=O)[nH]1 [ACV, 9-[(2-hydroxyethoxy)methyl]guanine] | 40% | 40% | 20% | 60% | non-specific toxicity | 98% | no effect |  |  |  |  | 
2 | O=c1[nH]c(=O)n([C@H]2O[C@H](CO)[C@@H](O)[C@@H]2F)cc1I [FIAU, 1-(2-deoxy-2-fluoro-a-D-arabinofuranosil)-5-iodouracil] | 70% | 70% |  |  |  |  |  | more than 60% | 98% | no apparent toxic effects | 57% | 83%
